Read-outs that look alike come from different tables or passages of the source.
Columns and labels:
[1] = target: human NAMPT (Homo sapiens, UniProt P43490); test: Human recombinant enzyme assay (NMN fluorescence biochemical assay, activation of NAMPT)
Summary of the method: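 Activation of recombinant human NAMPT (6 nM) with 2.5 mM ATP, 20 μM PRPP and 150 μM nicotinamide in 50 mM HEPES pH 7.2, 1 mM DTT, 1 mM CHAPS, 50 mM NaCl, 100 mM MgCl2; 60 min, ambient temperature. NMN formed was derivatized with acetophenone/KOH/formic acid, fluorescence read at 355/460 nm after 40 min.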

[2] = target: T1, endogenous NAMPT (Homo sapiens, UniProt P43490); test: Cellular NAD+ modulation assay in neuroblastoma SH-SY5Y cells; assay type: cell-based
T1 construct: stimulate the endogenous NAMPT in a native cellular environment; endogenous in cells; host or cells: SH-SY5Y neuroblastoma cells
T1 sequence (P43490 whole entry): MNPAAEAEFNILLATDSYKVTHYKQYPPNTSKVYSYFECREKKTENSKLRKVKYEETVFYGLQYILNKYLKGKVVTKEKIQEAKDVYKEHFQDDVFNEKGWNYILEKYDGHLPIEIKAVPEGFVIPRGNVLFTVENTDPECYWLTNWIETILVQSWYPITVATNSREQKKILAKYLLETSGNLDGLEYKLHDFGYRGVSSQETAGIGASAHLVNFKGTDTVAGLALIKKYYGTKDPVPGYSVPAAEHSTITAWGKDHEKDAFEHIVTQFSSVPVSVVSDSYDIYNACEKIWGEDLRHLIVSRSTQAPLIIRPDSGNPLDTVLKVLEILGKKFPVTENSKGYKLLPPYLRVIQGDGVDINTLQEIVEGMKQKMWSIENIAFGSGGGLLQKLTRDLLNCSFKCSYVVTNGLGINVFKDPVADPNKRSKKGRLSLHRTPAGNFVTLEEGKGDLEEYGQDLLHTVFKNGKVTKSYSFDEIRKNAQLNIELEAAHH
Protocol: The compounds described herein were also assayed for their ability to stimulate the endogenous NAMPT in a native cellular environment in the cellular NAD+ modulation assay, which measures the ability of the compound to modulate cellular NAD levels. Increased levels of NAD are expected by compounds that permeate the cells and activate the catalytic activity of the endogenous NAMPT.
Neuroblastoma SH-SY5Y cells were grown in 1:1 mixture of Eagle's Minimum Essential Medium and F12 Medium, along with 10% fetal bovine serum, in a humidified incubator with an atmosphere of 95% air and 5% CO2 at 37° C. The assays were initiated by plating 20 μL of SH-SY5Y cells in culture medium with 0.1% fetal bovine serum, at a density of 5000 cells per well to a 384-well Corning™ BioCoat™ Poly-D-Lysine Multiwell Plates. The plates were incubated in the 37° C. incubators for a period of 5 hours. Compounds in DMSO were added to the plates in a volume of 120 nL using the Labcyte Echo Liquid Handlers. […] The plates are then incubated for 40 hours. 30 μL of a readout-solution containing 0.2 U/mL Diaphorase enzyme, 40 uM resazurin, 10 uM FMN, 0.8 U/mL Alcohol dehydrogenase, 3% ethanol, 0.4 mg/mL bovine serum albumin, 0.2% Triton X-100 in 100 mM Tris-HCl, 30 mM EDTA, pH 8.4. The plates were read for fluorescence (Excitation/Emission=540 nm/590 nm) using an EnVision plate reader after 60 mins of incubation at ambient temperature.

[3] = Table A, human recombinant NAMPT, NMN formation, 60 min
[4] = Table A, human recombinant NAMPT, NMN formation, 60 min, read-out: EC50 Human
[5] = Table B, SH-SY5Y cells, cellular NAD levels, doxorubicin, 40 hours
[6] = Table B, SH-SY5Y cells, cellular NAD levels, doxorubicin, 40 hours, read-out: EC50

Sequence of human NAMPT (P43490 whole entry): as above

| Compound | AC1.4 Human [1, 3] | EC50 [1, 4] | AC0.3 [2, 5] | EC50 [2, 6] | EC50 [1] | EC50 [2] |
| --- | --- | --- | --- | --- | --- | --- |
| Cc1cccc(C(=O)N2CC[C@]3(C2)C[C@@H](NC(=O)NCc2ccc(Cl)cc2)C3)c1 [Compound 161, 1-(4-chlorobenzyl)-3-((2r,4s)-6-(3-methylbenzoyl)-6-azaspiro[3.4]octan-2-yl)urea] | 7.5 µM | 15.7 µM | 0.3 µM | 0.8 µM |  |  |
| Cc1ccccc1C(=O)N1CC[C@]2(C1)C[C@@H](NC(=O)NCc1ccc(Cl)cc1)C2 [Compound 162, 1-(4-chlorobenzyl)-3-((2r,4s)-6-(2-methylbenzoyl)-6-azaspiro[3.4]octan-2-yl)urea] | 6.2 µM | 21.7 µM | 0.7 µM | 1 µM |  |  |
| Cc1ccc(C(=O)N2CC[C@]3(C2)C[C@H](NC(=O)NCc2ccc(Cl)cc2)C3)cc1 [Compound 164, 1-(4-chlorobenzyl)-3-((2s,4r)-6-(4-methylbenzoyl)-6-azaspiro[3.4]octan-2-yl)urea] | 12.6 µM | 40.1 µM | 11.6 µM | 12.9 µM |  |  |
| O=C(NCCOCCOc1ccccc1)NCc1ccc(Cl)cc1 [Compound 196, 1-(4-chlorobenzyl)-3-(2-(2-phenoxyethoxy)ethyl)urea] | 3.7 µM | 25.5 µM | 1.0 µM | 3.3 µM |  |  |
| Cc1cccc(N2CC[C@]3(C2)C[C@H](NC(=O)NCc2ccc(Cl)cc2)C3)n1 [Compound 199, 1-(4-chlorobenzyl)-3-((2s,4r)-6-(6-methylpyridin-2-yl)-6-azaspiro[3.4]octan-2-yl)urea] | 10.6 µM | 42.2 µM | 2.0 µM |  |  |  |
| Cc1ncccc1C(=O)NC1CC2(CC(NC(=O)NCc3ccc(Cl)cc3)C2)C1 (stereo not shown) [Compound 203, N-(6-(3-(4-chlorobenzyl)ureido)spiro[3.3]heptan-2-yl)-2-methylnicotinamide] | 8.2 µM | 34.3 µM | 8.9 µM | 10 µM |  |  |
| Cc1ccc(C(=O)N2CC3(CC(NC(=O)NCc4ccncc4)C3)C2)cc1 [Compound 210, 1-(2-(4-methylbenzoyl)-2-azaspiro[3.3]heptan-6-yl)-3-(pyridin-4-ylmethyl)urea] | 1.9 µM | 49.9 µM | 9.7 µM | 9 µM |  |  |
| Cc1ccc(C(=O)N2CC3(CC(NC(=O)NCc4ccc(C(N)=O)cc4)C3)C2)cc1 [Compound 211, 4-((3-(2-(4-methylbenzoyl)-2-azaspiro[3.3]heptan-6-yl)ureido)methyl)benzamide] | 0.5 µM | 27.8 µM | >20.1 µM |  |  |  |
| N#Cc1ccccc1C(=O)NC1CC2(CC(NC(=O)NCc3ccc(Cl)cc3)C2)C1 (stereo not shown) [Compound 212, N-(6-(3-(4-chlorobenzyl)ureido)spiro[3.3]heptan-2-yl)-2-cyanobenzamide] | 7.2 µM |  | 0.3 µM |  | 6 µM | 0.1 µM |
| Cc1ccc(C(=O)N2CC3(CC(NC(=O)NCc4ccc(=O)[nH]c4)C3)C2)cc1 [Compound 214, 1-(2-(4-methylbenzoyl)-2-azaspiro[3.3]heptan-6-yl)-3-((6-oxo-1,6-dihydropyridin-3-yl)methyl)urea] | 10.5 µM | 36.7 µM | >20.1 µM |  |  |  |
| CN(C(=O)CCCCCNC(=O)NCc1cn[nH]c1)c1ccccc1F [Compound 287, 6-(3-((1H-pyrazol-4-yl)methyl)ureido)-N-(2-fluorophenyl)-N-methylhexanamide] | 0.1 µM | 4.4 µM | 0.3 µM | 1 µM |  |  |
| O=C(NCc1ccc(Cl)cc1)NC1CC2(CC(Cc3ccncc3)C2)C1 (stereo not shown) [Compound 329, 1-(4-chlorobenzyl)-3-(6-(pyridin-4-ylmethyl)spiro[3.3]heptan-2-yl)urea] | 62.5 µM | > 62.5 µM | 0.1 µM | 0.1 µM |  |  |
| Cc1ncccc1CC1CC2(C1)CC(NC(=O)NCc1ccc(Cl)cc1)C2 (stereo not shown) [Compound 346, 1-(4-chlorobenzyl)-3-(6-((2-methylpyridin-3-yl)methyl)spiro[3.3]heptan-2-yl)urea] | 62.5 µM | > 62.5 µM | 0.1 µM | 0.1 µM |  |  |

More lines, in order of falling EC50 [1, 4], values ahead:

| AC1.4 Human [1, 3] | EC50 [1, 4] | AC0.3 [2, 5] | EC50 [2, 6] | Compound | EC50 [1] | EC50 [2] |
| --- | --- | --- | --- | --- | --- | --- |
| 2.2 µM | 4.3 µM | 0.2 µM | 0.5 µM | Cc1ccc(C(=O)N2CC3(CC(NC(=O)NCc4ccc(Cl)cc4)C3)C2)cc1 [Compound 206, 1-(4-chlorobenzyl)-3-(2-(4-methylbenzoyl)-2-azaspiro[3.3]heptan-6-yl)urea] |  |  |
| 0.1 µM | 3.9 µM | 0.5 µM | 8.1 µM | COc1ccc(CNC(=O)NC2CC3(CC(Cc4ccncc4)C3)C2)cc1 (stereo not shown) [Compound 330, 1-(4-methoxybenzyl)-3-(6-(pyridin-4-ylmethyl)spiro[3.3]heptan-2-yl)urea] |  |  |
| 0.3 µM | 3.7 µM | 0.3 µM | 0.8 µM | CN(C(=O)CCCCCNC(=O)NCc1cnco1)c1ccccc1F [Compound 288, N-(2-fluorophenyl)-N-methyl-6-(3-(oxazol-5-ylmethyl)ureido)hexanamide] |  |  |
|  | 2.7 µM |  | 0.9 µM | Cc1ccc(C(=O)NC[C@H]2C[C@]3(C2)C[C@@H](NC(=O)NCc2ccc(Cl)cc2)C3)cn1 (stereo partly shown) [Compound 249, N-((6-(3-(4-chlorobenzyl)ureido)spiro[3.3]heptan-2-yl)methyl)-6-methyl-nicotinamide] |  |  |
| 0.1 µM | 2.3 µM | 0.2 µM | 0.3 µM | COc1ccc(CNC(=O)NCCCCC2CCN(C(=O)c3ccccc3C)CC2)cc1 [Compound 322, 1-(4-methoxybenzyl)-3-(4-(1-(2-methylbenzoyl)piperidin-4-yl)butyl)urea] |  |  |
| 0.9 µM | 2.2 µM | 0.5 µM | 0.6 µM | CN(C(=O)[C@H]1C[C@@]2(C[C@H](NC(=O)NCc3ccc(Cl)cc3)C2)C1)C1CCOC1 (stereo partly drawn) [Compound 202, (2S,4s,6S)-6-(3-(4-chlorobenzyl)ureido)-N-methyl-N-((R)-tetrahydrofuran-3-yl)spiro[3.3]heptane-2-carboxamide] |  |  |
| 1.0 µM | 2 µM | 0.3 µM | 0.3 µM | O=C(NCCCCC(=O)N1CCCc2ccccc21)NCc1ccc(Cl)cc1 [Compound 256, 1-(4-chlorobenzyl)-3-(5-(3,4-dihydroquinolin-1(2H)-yl)-5-oxopentyl)urea] |  |  |
| 0.1 µM | 1.5 µM | 0.3 µM | 0.3 µM | [2H]C([2H])(CCCC1CCN(C(=O)c2ccccc2)CC1)NC(=O)NCc1cnco1 [Compound 293, 1-(4-(1-benzoylpiperidin-4-yl)butyl-1,1-d2)-3-(oxazol-5-ylmethyl)urea] |  |  |
|  | 1.2 µM |  | 0.2 µM | COc1ccc(CNC(=O)N[C@H]2C[C@]3(C2)C[C@H](C(=O)N2CCCc4ccccc42)C3)cc1 (stereo partly shown) [Compound 229, 1-(4-methoxy-benzyl)-3-(6-(1,2,3,4-tetrahydro-quinoline-1-carbonyl)spiro[3.3]heptan-2-yl)urea] |  |  |
| 0.3 µM | 0.5 µM | 0.1 µM | 0.1 µM | CN(C(=O)CCCCCNC(=O)NCc1ccc(Cl)cc1)c1ccccc1 [Compound 268, 6-(3-(4-chlorobenzyl)ureido)-N-methyl-N-phenylhexanamide] |  |  |
